Two molecules from patent US11638716B2, “Compounds, compositions, and methods for the treatment of disease” (F-star Therapeutics, Inc., priority 2017, dated 2023) can be followed below.

Structures are written as SMILES.

The target in one test is T1, wt-mSTING (Mus musculus, UniProt Q3TBT3).
T1 construct: endogenous in cells
T1 sequence (Q3TBT3 1-378): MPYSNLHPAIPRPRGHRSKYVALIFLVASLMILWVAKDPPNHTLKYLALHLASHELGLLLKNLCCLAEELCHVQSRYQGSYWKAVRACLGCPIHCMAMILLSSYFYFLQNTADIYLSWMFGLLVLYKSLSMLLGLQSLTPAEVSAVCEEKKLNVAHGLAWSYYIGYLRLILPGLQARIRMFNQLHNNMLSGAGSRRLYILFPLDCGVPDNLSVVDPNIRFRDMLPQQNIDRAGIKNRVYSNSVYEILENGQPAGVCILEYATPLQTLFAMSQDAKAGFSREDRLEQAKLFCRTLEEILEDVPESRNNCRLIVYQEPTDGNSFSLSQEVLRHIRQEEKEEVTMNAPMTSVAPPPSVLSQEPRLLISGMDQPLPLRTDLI
Kind of test: IRF/NF-kB reporter cells, wt-mSTING. The format is cell-based. To be noted: 20 hours. The method, then:
FIG. 22 depicts cells stably expressing both or either one of the reporters to measure IRF and NF-kB activity were treated with a range of concentrations of compound 2 or DMSO control for 20 hours. IRF activity was assessed using QUANTI-luc to measure levels of Lucia and NF-kB activity was determined by measure SEAP levels at 620-655 nm. % induction was calculated from fold change in luminescence/absorbance compared to DMSO treated sample. EC50 values are generated by curve fit in Xlfit.
FIG. 24 depicts cells stably expressing both or either one of the reporters to measure IRF and NF-kB activity were treated with a range of concentrations of compound 3 or DMSO control for 20 hours. IRF activity was assessed using QUANTI-luc to measure levels of Lucia and NF-kB activity was determined by measure SEAP levels at 620-655 nm. % induction was calculated from fold change in luminescence/absorbance compared to DMSO treated sample. EC50 values are generated by curve fit in Xlfit.
FIG. 27 depicts cells stably expressing both or either one of the reporters to measure IRF and NF-kB activity were treated with a range of concentrations of compound 4 or DMSO control for 20 hours. IRF activity was assessed using QUANTI-luc to measure levels of Lucia and NF-kB activity was determined by measure SEAP levels at 620-655 nm. % induction was calculated from fold change in luminescence/absorbance compared to DMSO treated sample. EC50 values are generated by curve fit in Xlfit.
Cells grown in complete media were treated with various concentrations of a compound of the disclosure or DMSO control. […] After 20 h incubation, IRF activity was assessed using QUANTI-luc to measure levels of Lucia and NF-kB activity was determined by measure SEAP levels at 620-655 nm. % induction was calculated from fold change in luminescence/absorbance compared to DMSO treated sample. […]

The subject of test [1] is CT26 murine colon carcinoma. Kind of test: CT26 murine colon carcinoma model in female BALB/c mice. Type of test: in vivo, mouse. As for the experimental part: Example 4: Study to Determine the Efficacy of Compound 4 in a CT26 Murine Colon Carcinoma Model Using Female BALB/c Mice
The animals were fed ad libitum water (reverse osmosis, 1 ppm Cl) and a NIH 31 Modified and Irradiated Lab Diet consisting of 18.0% crude protein, 5.0% crude fat, and 5.0% crude fiber.
CT26 murine colon carcinoma cells were grown in RPMI-1640 medium containing 10% fetal bovine serum, 2 mM glutamine, 100 units/mL penicillin G sodium, 100 μg/mL streptomycin sulfate, and 25 μg/mL gentamicin. The cells were cultured in tissue culture flasks in a humidified incubator at 37° C., in an atmosphere of 5% CO2 and 95% air.
On the day of implantation, cultured CT26 cells were harvested during log phase growth and resuspended in phosphate buffered saline, pH 7.4 (PBS) at a concentration of 3×10^6 cells/mL. Each mouse was injected subcutaneously in the right flank with 3×10^5 tumor cells (0.1 mL cell suspension) and tumors were monitored as their volumes approached the target range of 80 to 120 mm^3. Eleven days after tumor cell implantation, on Day 1 of the study, animals were sorted into three groups (n=8/group) with individual tumor volumes of 63 to 126 mm^3, and a group mean tumor volume of 105 mm^3. Tumors were measured with a caliper twice weekly for the duration of the study. Tumor size was calculated using the formula:
[formula] wherein w is width and 1 is length, in mm, of a tumor. Tumor weight may be estimated with the assumption that 1 mg is equivalent to 1 mm^3 of tumor volume. Test Articles
Compound 4 was dissolved by adding the appropriate volume of sterile saline (vehicle) into each tube, vortexing, incubating at 37° C. for 2-5 minutes, followed by sonication, if needed. […] A fresh vial was prepared on each day of dosing.
On Day 1 of the study, three groups of BALB/c mice (n=8) began dosing according to the protocol in FIG. 20. Compound 4 and vehicle were administered intravenously (i.v.). Group 1 received vehicle on Days 1, 5, 9, and 14. Groups 2 and 3 received CMD 4 at 1 and 3 mg/kg, respectively, on Days 1, 5, 9, and 14.
The study endpoint was a tumor volume of 2000 mm^3 or Day 30, whichever came first. The study ended on Day 29. The study protocol specified a tumor growth delay assay based on the median time-to-endpoint (TTE) in a treated group versus the control group. Tumors were measured using calipers twice per week, and each animal was euthanized for tumor progression (TP) when its tumor reached the 2000 mm^3 volume endpoint. The TTE for each mouse was calculated with the following equation:
[formula] where b is the intercept and m is the slope of the line obtained by linear regression of a log-transformed tumor growth data set. The data set is comprised of the first observation that exceeded the study endpoint volume and the three consecutive observations that immediately preceded the attainment of the endpoint volume. […] In instances in which the log-transformed calculated TTE preceded the day prior to reaching endpoint or exceeded the day of reaching tumor volume endpoint, a linear interpolation was performed to approximate TTE.
On Day 29, MTV (n) was defined as the median tumor volume of the number of animals, n, that survived to the last day and whose tumors had not reached the volume endpoint. Any animal determined to have died from treatment-related (TR) causes was to be assigned a TTE value equal to the day of death. Any animal that died from non-treatment-related (NTR) causes was to be excluded from the analysis. Treatment outcome was evaluated from tumor growth delay (TGD), which was defined as the increase in the median TTE for a treatment group compared to the control group: TGD=T−C expressed in days, or as a percentage of the median TTE of the control group:
[formula] wherein T is the median TTE for a treatment group and C is the median TTE for the control group. Tumor Growth Inhibition (TGI) Analysis […]

Regarding `N.N.Nc1ncnc2c1ncn2[C@@H]1O[C@@H]2COP(=O)(S)O[C@@H]3[C@H](F)[C@@H](COP(=O)(O)O[C@H]2[C@H]1F)O[C@H]3n1ccc(=O)[nH]c1=O` (stereo partly drawn) [Compound 3], the “activity against wt-mSTING” value on wt-mSTING is recorded as “possess activity”. The “tumor growth compared to the vehicle” value in test [1] (intravenously at 3 mg/kg) is on record as “Tumor growth was slowed”.

For `CCCCCCCCCCOc1ccc(C(=O)Oc2ccc(CSP3(=O)OC[C@H]4O[C@@H](n5cnc6c(N)ncnc65)[C@H](F)[C@@H]4OP(=O)(O)OC[C@H]4O[C@@H](n5ccc(=O)[nH]c5=O)[C@H](O3)[C@@H]4F)cc2)cc1` (stereo partly drawn) [Compound 4], the “activity against wt-mSTING” value on wt-mSTING is reported as “possess activity”. Moreover, the “tumor growth compared to the vehicle” value in test [1] (intravenously at 1 mg/kg and 3 mg/kg) was “Tumor growth was slowed”. Besides, the “individual times to endpoint vs vehicle group” value in test [1] (treatment groups 1 and 3 mg/kg i.v.) is reported as “took longer to reach the endpoint”. The “tumor growth inhibition compared to the vehicle group” value in test [1] (treatment groups 1 and 3 mg/kg i.v., Days 1, 5, 9, 14, TGI on Day 18) is reported as “at least 89%”. Moreover, in test [1] (treatment groups 1 and 3 mg/kg i.v., Days 1, 5, 9, 14, endpoint tumor volume 2000 mm^3), the “time to reach the endpoint, longer than vehicle group” value is given as “at least 10 days”. For the same molecule, the “tumor volume distribution on day 18 vs vehicle group” value in test [1] (treatment groups 1 and 3 mg/kg i.v., day 18) is on record as “significantly smaller tumor volumes”. For the same molecule, the “percent of mice remaining (Kaplan-Meier) vs vehicle group” value in test [1] (treatment groups 1 and 3 mg/kg i.v., day 21) was “greater percent of mice remaining”.
